Legend:
[1] = target: T1, human vasopressin V1a receptor (Homo sapiens, UniProt P37288); assay: Functional assay on human vasopressin V1a receptor expressing cell line (intracellular Ca2+ fluorescence); assay type: cell-based; conditions: 1321N1 cells, (Arg8)-vasopressin at EC80; read-out: IC50 (nM) on hV1a cell line
[2] = target: T1, human vasopressin V1a receptor; assay: Human vasopressin V1a receptor binding assay; conditions: 1321N1 cell membranes, [3H]vasopressin; read-out: Ki (nM) on hV1a cell line
Summary of the method: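 Radioligand competition on membranes from cells expressing human V1a receptor; incubation 60 minutes at 27° C., non-specific binding with 1.2×10^−6 M unlabeled (Arg^8)-vasopressin, filtration separation. Ki by Cheng-Prusoff using Scatchard-derived KD, from at least two independent experiments.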

T1 sequence (P37288 whole entry): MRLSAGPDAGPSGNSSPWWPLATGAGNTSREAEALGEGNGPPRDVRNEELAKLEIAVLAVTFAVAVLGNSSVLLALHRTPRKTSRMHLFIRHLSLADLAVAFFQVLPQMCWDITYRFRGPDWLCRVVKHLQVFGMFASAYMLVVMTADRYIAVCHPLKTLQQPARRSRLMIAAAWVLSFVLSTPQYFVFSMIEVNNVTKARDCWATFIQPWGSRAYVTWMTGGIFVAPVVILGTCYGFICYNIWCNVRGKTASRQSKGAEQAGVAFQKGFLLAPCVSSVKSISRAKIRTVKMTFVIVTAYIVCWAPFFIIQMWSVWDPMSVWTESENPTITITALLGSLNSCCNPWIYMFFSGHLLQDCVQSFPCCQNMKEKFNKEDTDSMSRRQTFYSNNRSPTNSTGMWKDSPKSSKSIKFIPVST

| Compound | IC50 [1] [nM] | Ki [2] [nM] |
| --- | --- | --- |
| COC1Cc2cc(Cl)ccc2-n2c(nnc2C2CCN([C@@H]3CCOC3)CC2)C1 (stereo partly drawn) [Example 178, 8-chloro-5-methoxy-1-{1-[(3R)-tetrahydrofuran-3-yl]piperidin-4-yl}-5,6-dihydro-4H-[1,2,4]triazolo[4,3-a][1]benzazepine] | 19 | 3.9 |
| NC1Cc2cc(Cl)ccc2-n2c(nnc2[C@H]2CC[C@H](C(F)(F)F)CC2)C1 (stereo partly shown) [Example 43] | 210 | 88 |
| OC1Cc2cc(Cl)ccc2-n2c(nnc2[C@H]2CC[C@H](C(F)(F)F)CC2)C1 (stereo partly drawn) [Example 72, 8-chloro-1-[trans-4-(trifluoromethyl)cyclohexyl]-5,6-dihydro-4H-[1,2,4]triazolo[4,3-a][1]benzazepine-5-ol] | 21 | 7.5 |
| O=C(N[C@H]1Cc2cc(Cl)ccc2-n2c(nnc2[C@H]2CC[C@H](Oc3ccccn3)CC2)C1)c1ccc(F)cc1 [Example 80] | 520 | 58 |
| CCO[C@]1(C)CC[C@@H](c2nnc3n2-c2ccc(Cl)cc2CC(N(C)C)C3)CC1 (stereo partly drawn) [Example 234, 8-chloro-1-(trans-4-ethoxy-4-methylcyclohexyl)-N,N-dimethyl-5,6-dihydro-4H-[1,2,4]triazolo[4,3-a][1]benzazepin-5-amine] | 57 | 3.8 |
| N[C@H]1Cc2cc(Cl)ccc2-n2c(nnc2[C@H]2CC[C@H](Oc3ccccn3)CC2)C1 [Example 7, (5S)-8-chloro-1[trans-4-(pyridin-2-yloxy)cyclohexyl]-5,6-dihydro-4H-[1,2,4]triazolo[4,3-a][1]benzazepine-5-amine] | 20 | 2.1 |
| Clc1ccc2c(c1)C[C@H](N1CCCCC1)Cc1nnc([C@H]3CC[C@H](Oc4ccccn4)CC3)n1-2 [Example 127, (5S)-8-chloro-5-(piperidin-1-yl)-1-[trans-4-(pyridin-2-yloxy)cyclohexyl]-5,6-dihydro-4H-[1,2,4]triazolo[4,3-a][1]benzazepine] | 17 | 2.8 |
| CN(C)CCN[C@@H]1Cc2cc(Cl)ccc2-n2c(nnc2[C@H]2CC[C@H](Oc3ccccn3)CC2)C1 [Example 194, N′-{(5R)-8-chloro-1-[trans-4-(pyridin-2-yloxy)cyclohexyl]-5,6-dihydro-4H-[1,2,4]triazolo[4,3-a][1]benzazepin-5-yl}-N,N-dimethylethane-1,2-diamine] | 22 | 1.1 |
| O=C(OC1Cc2cc(Cl)ccc2-n2c(nnc2[C@H]2CC[C@H](Oc3ccccn3)CC2)C1)C1CCC(F)(F)CC1 (stereo partly drawn) [Example 212, 8-chloro-1-[trans-4-(pyridin-2-yloxy)cyclohexyl]-5,6-dihydro-4H-[1,2,4]triazolo[4,3-a][1]benzazepin-5-yl 4,4-difluorocyclohexanecarboxylate] | 34 | 2.8 |
| CCO[C@]1(CC)CC[C@@H](c2nnc3n2-c2ccc(Cl)cc2CC(N(C)C)C3)CC1 (stereo partly drawn) [Example 245, 8-chloro-1-(trans-4-ethoxy-4-ethylcyclohexyl)-N,N-dimethyl-5,6-dihydro-4H-[1,2,4]triazolo[4,3-a][1]benzazepin-5-amine] | 130 | 7 |
| COc1ccc(CN[C@H]2CC[C@H](c3nnc4n3-c3ccc(Cl)cc3CC3(C4)OCCO3)CC2)cc1 [Example 227, Trans-4-(8′-chloro-4′H,6′H-spiro[1,3-dioxolane-2,5′-[1,2,4]triazolo[4,3-a][1]benzazepin]-1′-yl)-N-(4-methoxybenzyl)cyclohexanamine] | 51 | 1 |
| CC(C)(C)CN[C@H]1Cc2cc(Cl)ccc2-n2c(nnc2[C@H]2CC[C@H](Oc3ccccn3)CC2)C1 [Example 165, (5S)-8-chloro-N-(2,2-dimethylpropyl)-1-[trans-4-(pyridin-2-yloxy)cyclohexyl]-5,6-dihydro-4H-[1,2,4]triazolo[4,3-a][1]benzazepin-5-amine] | 21 | 1.5 |
| Cc1ccc2c(c1)CC(N)Cc1nnc([C@H]3CC[C@H](Oc4ccccn4)CC3)n1-2 (stereo partly drawn) [Example 37, 8-methyl-1-[trans-4-(pyridin-2-yloxy)cyclohexyl]-5,6-dihydro-4H-[1,2,4]triazolo[4,3-a][1]benzazepine-5-amine] | 100 | 7 |
| O=C(N[C@H]1Cc2cc(Cl)ccc2-n2c(nnc2[C@H]2CC[C@H](Oc3ccccn3)CC2)C1)C(F)(F)F [Example 201] | 19 | 3.9 |
| COC1Cc2cc(Cl)ccc2-n2c(nnc2C2CCN(C(=O)c3cccnc3)C2)C1 (stereo not shown) [Example 187, [3-(8-chloro-5-methoxy-5,6-dihydro-4H-[1,2,4]triazolo[4,3-a][1]benzazepin-1-yl)pyrrolidin-1-yl](pyridin-3-yl)methanone] | 4750 | 86 |

Now those with a lower IC50 [1], led by results:

| IC50 [1] [nM] | Ki [2] [nM] | Compound |
| --- | --- | --- |
| 16 | 1.9 | O=C([C@H]1CC[C@H](c2nnc3n2-c2ccc(Br)cc2CC(O)C3)CC1)N1CCCCC1 (stereo partly drawn) [Example 92, [Trans-4-(8-bromo-5-hydroxy-5,6-dihydro-4H-[1,2,4]triazolo[4,3-a][1]benzazepin-1-yl)cyclohexyl](piperidin-1-yl)methanone] |
| 7 | 1.1 | Clc1ccc2c(c1)CC(NC1CCC1)Cc1nnc([C@H]3CC[C@H](Oc4ccccn4)CC3)n1-2 (stereo partly drawn) [Example 27, 8-chloro-N-cyclobutyl-1-[trans-4-(pyridin-2-yloxy)cyclohexyl]-5,6-dihydro-4H-[1,2,4]triazolo[4,3-a][1]benzazepine-5-amine] |
| 6.3 | 0.8 | COC1Cc2cc(Cl)ccc2-n2c(nnc2N2CCN(c3ncccc3Cl)CC2)C1 (stereo not shown) [Example 192, 8-chloro-1-[4-(3-chloropyridin-2-yl)piperazin-1-yl]-5-methoxy-5,6-dihydro-4H-[1,2,4]triazolo[4,3-a][1]benzazepine] |
| 4.2 | 0.9 | CO[C@]1(C(F)(F)F)CC[C@H](c2nnc3n2-c2ccc(Cl)cc2CC2(C3)OCCO2)CC1 [Example 236, 8′-chloro-1′-[cis-4-methoxy-4-(trifluoromethyl)cyclohexyl]-4′H,6′H-spiro[1,3-dioxolane-2,5′-[1,2,4]triazolo[4,3-a][1]benzazepine]] |
| 4.1 | 1.1 | O=C(N[C@@H]1Cc2cc(Cl)ccc2-n2c(nnc2[C@H]2CC[C@H](Oc3ccccn3)CC2)C1)C1CCOCC1 [Example 180, N-{(5R)-8-chloro-1-[trans-4-(pyridin-2-yloxy)cyclohexyl]-5,6-dihydro-4H-[1,2,4]triazolo[4,3-a][1]benzazepin-5-yl}tetrahydro-2H-pyran-4-carboxamide] |
| 3.7 | 0.4 | O=C(CO)NC1Cc2cc(Cl)ccc2-n2c(nnc2[C@H]2CC[C@H](Oc3ccccn3)CC2)C1 (stereo partly drawn) [Example 15, N-{8-chloro-1-[trans-4-(pyridin-2-yloxy)cyclohexyl]-5,6-dihydro-4H-[1,2,4]triazolo[4,3-a][1]benzazepin-5-yl}-2-hydroxyacetamide] |
| 3.7 | 0.2 | N#CCC(=O)OC1Cc2cc(Cl)ccc2-n2c(nnc2[C@H]2CC[C@H](Oc3ccccn3)CC2)C1 (stereo partly drawn) [Example 215, 8-chloro-1-[trans-4-pyridin-2-yloxy)cyclohexyl]-5,6-dihydro-4H-[1,2,4]triazolo[4,3-a][1]benzazepin-5-yl cyanoacetate] |
| 3 | 0.7 | Clc1ccc2c(c1)C[C@@H](N1CCCC1)Cc1nnc([C@H]3CC[C@H](Oc4ccccn4)CC3)n1-2 [Example 174, (5R)-8-chloro-1-[trans-4-pyridin-2-loxcyclohexyl]-5-(pyrrolidin-1-yl)-5,6-dihydro-4H-[1,2,4]triazolo[4,3-a][1]benzazepine] |
| 2.8 | 0.5 | CN(C)C1Cc2cc(Cl)ccc2-n2c(nnc2[C@H]2CC[C@H](Oc3ccccn3)CC2)C1 (stereo partly drawn) [Example 22, 8-chloro-N,N-dimethyl-1-[trans-4-(pyridin-2-yloxy)cyclohexyl]-5,6-dihydro-4H-[1,2,4]triazolo[4,3-a][1]benzazepine-5-amine] |
| 2.3 | 0.8 | O=C(N[C@@H]1Cc2cc(Cl)ccc2-n2c(nnc2[C@H]2CC[C@H](Oc3ccccn3)CC2)C1)C1CCC1 [Example 125, N-{(5R)-8-chloro-1-[trans-4-(pyridin-2-yloxy)cyclohexyl]-5,6-dihydro-4H-[1,2,4]triazolo[4,3-a][1]benzazepin-5-yl}cyclobutanecarboxamide] |
| 1.8 | 0.5 | CCC[C@]1(OC)CC[C@H](c2nnc3n2-c2ccc(Cl)cc2CC2(C3)OCCO2)CC1 [Example 242, 8′-chloro-1′-(trans-4-methoxy-4-propylcyclohexyl)-4′H,6′H-spiro[1,3-dioxolane-2,5′-[1,2,4]triazolo 4,3a][1]benzoepin] |
| 1.8 | 0.4 | O=C([C@H]1CC[C@H](c2nnc3n2-c2ccc(Br)cc2CC2(C3)OCCO2)CC1)N1CCCCC1 [Example 85, [Trans-4-(8′-bromo-4′H,6′H-spiro[1,3-dioxolane-2,5′-[1,2,4]triazolo[4,3-a][1]benzazepin]-1′-yl)cyclohexyl](piperidin-1-yl)methanone] |
| 1.5 | 0.7 | CN(C)CC(=O)OC1Cc2cc(Cl)ccc2-n2c(nnc2[C@H]2CC[C@H](Oc3ccccn3)CC2)C1 (stereo partly drawn) [Example 216, 8-chloro-1-[trans-4-(pyridin-2-yloxy)cyclohexyl]-5,6-dihydro-4H-[1,2,4]triazolo[4,3-a][1]benzazepin-5-yl N,N-dimethylglycinate] |
| 0.8 | 0.4 | CC(=O)N[C@@H]1Cc2cc(Cl)ccc2-n2c(nnc2[C@H]2CC[C@H](Oc3ccccn3)CC2)C1 [Example 168, N-{(5R)-8-chloro-1-[trans-4-(pyridin-2-yloxy)cyclohexyl]-5,6-dihydro-4H-[1,2,4]triazolo[4,3-a][1]benzazepin-5-yl}acetamide] |
